These results are taken from patent US8802638B1, “Flavonoid treatment of glycogen synthase kinase-based disease” (University of South Florida, priority 2007, dated 2014).

One data set deals with GSK-3α/β. Briefly: Western blot of phosphorylated GSK-3α/β forms in SweAPP N2a cells. Type of data set: cell-based, murine. Particulars: SweAPP N2a cells co-treated with luteolin or SB-415286 and GF109203X; data not shown. Here is the method: (§1) Cultured cells or mouse brain were lysed in ice-cold lysis buffer described above, and an aliquot corresponding to 50 μg of total protein was electrophoretically separated using 12% Tris-HCl or 16.5% Tris-tricine gels. Electrophoresed proteins were then transferred to PVDF membranes, washed in dH2O, and blocked for 1 hr at ambient temperature in Tris-buffered saline (TBS; Bio-Rad) containing 5% (w/v) non-fat dry milk. After blocking, membranes were hybridized for 1 hr at ambient temperature with various primary antibodies. Membranes were then washed 3× for 5 min each in dH2O and incubated for 1 hr at ambient temperature with the appropriate HRP-conjugated secondary antibody (1:1,000). Antibodies were obtained against the amino-terminus and carboxyl-terminus of PS1 (Chemicon, Temecula, Calif.), amino-terminus and carboxyl-terminus of APP (22C11), actin (Roche, Basel, Switzerland), Aβ (6E10, 48G) (Signet Laboratories, Dedham, Mass.), phosphor-GSK3α (ser^21, clone BK202) (Upstate, Lake Placid, N.Y.), phospho-GSK3α/β (pTyr^279/216) (Sigma), phospho-GSK-3β (Ser^9) (Sigma) and total GSK-3α/β (Sigma). All antibodies were diluted in TBS containing 5% (w/v) of non-fat dry milk. Blots were developed using the luminol reagent (Pierce Biotechnology). Densitometric analysis was done as previously described using a FluorS Multiimager with Quantity One™ software (39). […] Antibodies used for Western blot included the APP-carboxyl-terminal antibody (1:50)), amino-terminal APP antibody (clone 22C11), or 6E10 (1:1,000), or actin antibody (1:1,500; as an internal reference control). γ-secretase activity was quantified in cell lysates using available kits based on secretase-specific peptides conjugated to fluorogenic reporter molecules.
The effect luteolin had on a variety of proteins related to and/or required for proper functioning of the γ-secretase complex was evaluated to establish the mechanism whereby luteolin modulates γ-secretase activity and subsequent Aβ generation. […]

The test system of the next data set is PS1. Description: Western blot of PS1 C-terminal fragment phosphorylation in SweAPP N2a cells. Type of data set: cell-based, murine. How it is done: (§2) Cultured cells or mouse brain were lysed in ice-cold lysis buffer described above, and an aliquot corresponding to 50 μg of total protein was electrophoretically separated using 12% Tris-HCl or 16.5% Tris-tricine gels. Electrophoresed proteins were then transferred to PVDF membranes, washed in dH2O, and blocked for 1 hr at ambient temperature in Tris-buffered saline (TBS; Bio-Rad) containing 5% (w/v) non-fat dry milk. After blocking, membranes were hybridized for 1 hr at ambient temperature with various primary antibodies. Membranes were then washed 3× for 5 min each in dH2O and incubated for 1 hr at ambient temperature with the appropriate HRP-conjugated secondary antibody (1:1,000). All antibodies were diluted in TBS containing 5% (w/v) of non-fat dry milk. Blots were developed using the luminol reagent (Pierce Biotechnology). Densitometric analysis was done as previously described using a FluorS Multiimager with Quantity One™ software. Immunoprecipitation was performed for detection of sAPP-α, sAPP-β and Aβ by incubating 200 μg of total protein of each sample with various sequential combinations of 6E10 (1:100) and/or 22C11 (1:100) antibodies overnight with gentle rocking at 4° C., and 10 μL of 50% protein A-Sepharose beads were then added to the sample (1:10; Sigma) prior to gentle rocking for an additional 4 hrs at 4° C. Following washes with 1× cell lysis buffer, samples were subjected to Western blot as described above. Antibodies used for Western blot included the APP-carboxyl-terminal antibody (1:50)), amino-terminal APP antibody (clone 22C11), or 6E10 (1:1,000), or actin antibody (1:1,500; as an internal reference control). γ-secretase activity was quantified in cell lysates using available kits (R&D Systems, Minneapolis, Minn.), based on secretase-specific peptides conjugated to fluorogenic reporter molecules.
The two bands of highest molecular weight, approximately 20 kD and 18 kD in size, represent phosphorylated PS1 CTFs with a smaller 16 kD band representing the more common CTF product indicative of PS1 endoproteolytic cleavage.
To confirm that the 20 kD and 18 kD bands were phosphorylated PS1 isoforms, SweAPP N2a cells were treated with luteolin (20 μM) prior to lysis and cell lysates incubated with calf intestine alkaline phosphatase (CIAP) (Fermentas, Hanover, Md.), to dephosphorylate any potential phosphorylated proteins, to eliminate skewing of electrophorectic mobilities. Following 30 minutes of incubation, the 20 kD band is not evident in the CIAP treated lysates, seen in FIGS. 21(A) through 22, and the 18 kD band reduced while endogenous CTF, 16 kD, appears to accumulate. When compared to lysates incubated with only reaction buffer, phosphorylated residues decrease in a time dependent manner, shown by the 20 kD CTF:16 kD CTF. […] Luteolin affects PS1 phosphorylation and may indicate a means by which γ-secretase activity may be regulated.
To determine if this phenomenon was specifically attributable to luteolin treatment or more generally in regards to GSK-3 inhibition, SweAPP N2a cells were treated with a range of doses of the GSK-3 inhibitor SB-415286 (BIOMOL®, Plymouth Meeting, Pa.). […] FIG. 24(B). GSK-3α and β was successfully knocked-down (>70%, data not shown) with siRNA in SweAPP N2a cells, substantiating the role of GSK-3α in this luteolin-mediated PS1 processing. […]
Background: In western blotting, separated proteins are transferred to a membrane and probed.

A further data set concerns SweAPP N2a cells. Description: APP proteolysis (Aβ ELISA, IP, APP CTF Western blot) in SweAPP N2a cells. It counts as cell-based, murine. The settings on record: result in words; ELISA/IP/Western blot. Here is the method:
Cultured cells or mouse brain were lysed in ice-cold lysis buffer described above, and an aliquot corresponding to 50 μg of total protein was electrophoretically separated using 12% Tris-HCl or 16.5% Tris-tricine gels. Electrophoresed proteins were then transferred to PVDF membranes, washed in dH2O, and blocked for 1 hr at ambient temperature in Tris-buffered saline (TBS; Bio-Rad) containing 5% (w/v) non-fat dry milk. After blocking, membranes were hybridized for 1 hr at ambient temperature with various primary antibodies. Membranes were then washed 3× for 5 min each in dH2O and incubated for 1 hr at ambient temperature with the appropriate HRP-conjugated secondary antibody (1:1,000). Antibodies were obtained against the amino-terminus and carboxyl-terminus of PS1 (Chemicon, Temecula, Calif.), amino-terminus and carboxyl-terminus of APP (22C11), actin (Roche, Basel, Switzerland), Aβ (6E10, 48G) (Signet Laboratories, Dedham, Mass.), phosphor-GSK3α (ser^21, clone BK202) (Upstate, Lake Placid, N.Y.), phospho-GSK3α/β (pTyr^279/216) (Sigma), phospho-GSK-3β (Ser^9) (Sigma) and total GSK-3α/β (Sigma). All antibodies were diluted in TBS containing 5% (w/v) of non-fat dry milk. Blots were developed using the luminol reagent (Pierce Biotechnology). Densitometric analysis was done as previously described using a FluorS Multiimager with Quantity One™ software (39). Immunoprecipitation was performed for detection of sAPP-α, sAPP-β and Aβ by incubating 200 μg of total protein of each sample with various sequential combinations of 6E10 (1:100) and/or 22C11 (1:100) antibodies overnight with gentle rocking at 4° C., and 10 μL of 50% protein A-Sepharose beads were then added to the sample (1:10; Sigma) prior to gentle rocking for an additional 4 hrs at 4° C. Following washes with 1× cell lysis buffer, samples were subjected to Western blot as described above. Antibodies used for Western blot included the APP-carboxyl-terminal antibody (1:50)), amino-terminal APP antibody (clone 22C11), or 6E10 (1:1,000), or actin antibody (1:1,500; as an internal reference control). γ-secretase activity was quantified in cell lysates using available kits based on secretase-specific peptides conjugated to fluorogenic reporter molecules.
SweAPP N2a cells and primary neuronal cells derived from Tg2576 mice were treated with varying doses of luteolin to examine luteolin's effect on APP proteolysis. Cellular extracts were collected and analyzed using immunoprecipitation (IP), Western blot, and ELISA. […] See FIGS. 1 through 2(B) and 5 through 6(B). SweAPP N2a and primary Tg2576-derived neuronal cells CTF profiles were analyzed following luteolin treatment to determine at which level luteolin impacts amyloid processing.
On the technique in general: In an ELISA, binding on a coated surface is turned into a signal by an enzyme label.

In another data set the test system is PS1-APP association. Briefly: PS1-APP association, immunoprecipitation/Western blot in SweAPP N2a cells. Particulars: 20 μM for 4 hrs or siRNA transfection. Type of data set: cell-based, murine. Here is the method: as §2
Cell lysates of luteolin-treated SweAPP N2a cells were immunoprecipitated by PS1 antibody and probed for APP to clarify how phospho-PS1 CTF isoforms may regulate γ-secretase activity, seen in FIGS. 26(A) through 27(B). As illustrated in FIGS. 26(A) and (B), the APP-PS1 association is disrupted by luteolin, SB-415286 treatment, and GSK-3α siRNA. […] Thus, GSK-3α or, more specifically, downstream phosphorylation of the PS1 CTF plays an essential role in regulating the association of γ-secretase complex with its APP substrate.

The subject of the next data set is TACE, ADAM10, sAPPα. Description: non-amyloidogenic APP processing (TACE, ADAM10 maturation, sAPPα release). Type of data set: cell-based. The settings on record: data not shown. The source says:
The presence of phosphorylated PS1 CTFs corresponds with reduction of Aβ generation and accumulation of the β-CTF of APP, as was observed following luteolin treatment. The accumulation β-CTFs following luteolin treatment is a fraction of β-CTF seen after direct γ-secretase inhibitor treatment (data not shown). In view of this finding, selective GSK-3 inactivation is a less toxic, more regulative, substrate-specific mode of γ-secretase inhibition. Earlier studies routinely employed phorbol-12,13-dibutyrate (PDBu), a potent PKC activator, as their phosphorylating agent. Thus, luteolin was tested for similar PKC activation, rather than a GSK-3 inhibitor. […] Additionally, there are no indications GSK-3α inhibition affects non-amyloidogenic processing of APP, since luteolin, SB-415286, and GSK-3α RNAi treatment have no effect on the maturation of TACE, ADAM10, or sAPPα release (data not shown), which are all strongly associated with PKC activation.

The next data set deals with T1, γ-secretase (Mus musculus, UniProt P49769).
T1 construct: endogenous in cells; host or cells: SweAPP N2a cells (lysates of treated cells)
Description: fluorometric assay for γ-secretase cleavage activity in SweAPP N2a cell lysates. Type of data set: cell-based, murine. Particulars: relative to untreated control. How it is done:
as §1, with “All antibodies were diluted in TBS containing 5% (w/v) of non-fat dry milk. Blots were developed using the luminol reagent (Pierce Biotechnology).” left out
Due to the implications on γ-secretase activity, luteolin's effect on SweAPP N2a cells was analyzed using a fluorometric assay for γ-cleavage.
Cultured cells or mouse brain were lysed in ice-cold lysis buffer described above, and an aliquot corresponding to 50 μg of total protein was electrophoretically separated using 12% Tris-HCl or 16.5% Tris-tricine gels. […] Densitometric analysis was done as previously described using a FluorS Multiimager with Quantity One™ software. […]

For data set [1] the following is noted: diosmetin formed from diosmin by intestinal flora; cited from earlier work.
The test system of another data set is Tg2576 mice. The settings on record: 0.05% diosmin diet for 6 months.

`CN(C)CCCn1cc(C2=C(c3c[nH]c4ccccc34)C(=O)NC2=O)c2ccccc21` [GF109203X, reference compound]: the “GSK-3 inhibition on co-treatment with PKC inhibitor” value with GSK-3α/β is recorded as “no effect on GSK-3 inhibition”. The “PS1 CTF phosphorylation (phospho-PS1 CTF to PS1 CTF ratio)” value in the data set with PS1 was “Minor decreases in 20 kD and 18 kD phospho-PS1 CTF isoforms”.

With `O=C1NC(=O)C(c2ccccc2[N+](=O)[O-])=C1Nc1ccc(O)c(Cl)c1` [SB-415286, reference compound], the “Aβ1-40, 42 production” value in the data set with SweAPP N2a cells is recorded as “congruent decreases in Aβ1-40, 42 generation”. Also, the “PS1 CTF phosphorylation (phospho-PS1 CTF to PS1 CTF ratio)” value with PS1 is given as “Alterations in phospho-PS1 CTF:PS1 CTF ratios were similar to prior experiments”. For the same molecule, the “ratio of APP to actin (full-length APP levels)” value with PS1-APP association (6E10 Western blot of lysates) is “no significant changes”. Besides, in the data set with PS1-APP association (IP with anti-PS1 CTF, 6E10 blot), the APP-PS1 association result is recorded as “disrupted”. Also, the “maturation of TACE, ADAM10, or sAPPα release” value with TACE, ADAM10, sAPPα is listed as “no effect”.

Regarding `COc1ccc(-c2cc(=O)c3c(O)cc(O)cc3o2)cc1O` [diosmetin], the γ-secretase cleavage activity entry at γ-secretase is reported as “just as efficacious as luteolin”. Moreover, the “PS1 CTF phosphorylation (phospho-PS1 CTF to PS1 CTF ratio)” value in the data set on PS1 was “just as efficacious as luteolin”. The plasma half-life in data set [1] is above 26 h.

Take `O=c1cc(-c2ccc(O)cc2)oc2cc(O)cc(O)c12` [apigenin, reference compound]: the “Aβ1-40, 42 production” value with SweAPP N2a cells is “did not reduce Aβ1-40, 42 production to the same level as luteolin, diosmetin, and diosmin”. Also, on γ-secretase, the γ-secretase cleavage activity result is on record as “results were not similar to luteolin”.

Consider `COc1ccc(-c2cc(=O)c3c(O)cc(O[C@@H]4O[C@H](CO[C@@H]5O[C@@H](C)[C@H](O)[C@@H](O)[C@H]5O)[C@@H](O)[C@H](O)[C@H]4O)cc3o2)cc1O` [diosmin], for which, in the data set on Tg2576 mice, the “Aβ plaque burden (4G8 stained sections, image analysis)” value is “significantly reduced throughout the brain”.
